Test results: publication PMC5651866, “Halogenated Chrysins Inhibit Dengue and Zika Virus Infectivity” (Scientific Reports, 2017)

Key:
[1] = Cytotoxicity study, summary statements over human-derived cell lines; format: cell-based; conditions: HepG2 and HEK-293 cells, THP-1, HepG2, HEK-293, 10 and 25 µM, Table 2
Protocol: (§1) The cytotoxicity of active compounds was tested on LLC-MK2, Vero, THP-1, HEK-293, HepG2 and C6/36 cell lines. Each cell line was seeded at 1 × 10^4 cells per well in 96-well plates and incubated overnight. The compounds were added at the indicated concentrations and the cells were incubated for 48 h, unless indicated otherwise. Cell viability was analyzed using CellTiter 96® AQueous One Solution Cell Proliferation Assay kit (Promega, Wisconsin-Madison, USA) according to manufacturer’s protocol. The plate was read at the A 450 in a VICTORTM × 3 microplate reader (PerkinElmer, Massachusetts, USA). Percent cell viability in compound-treated wells was calculated using reference DMSO-treated cells as a 100% cell viability control. The CC50 values of LLC/MK2 cells were calculated using nonlinear regression analysis. Results were reported as means and standard error of the means (SEM) of CC50 values of three independent experiments in which each drug concentration was tested in triplicate.

[2] = Cytotoxicity study (CellTiter 96 AQueous One) in THP-1 cells; format: cell-based; conditions: human, read-out: Cells viability (%, means ± SEM) THP-1
Protocol: as §1

[3] = Cytotoxicity study (CellTiter 96 AQueous One) in HEK-293 cells; format: cell-based; conditions: human, read-out: Cells viability (%, means ± SEM) HEK-293
Protocol: as §1

DENV3 (16562) = assay: Antiviral efficacy (EC50) in virus infected LLC/MK2 cells, plaque assay; format: cell-based, Dengue virus
Protocol: (§2) Compound at various concentrations were added to virus infected LLC/MK2 cells and viral titers were accessed by plaque titration of supernatants as previously described.
(§3) LLC/MK2 cells were seeded at 5 × 10^4 cells into each well of 24-well plate and incubated overnight at 37 °C under 5% CO2. Cells were infected with DENV2 at the multiplicity of infection (M.O.I.) of 0.1, unless indicated otherwise, for 1 h with gentle rocking every 15 min. Cells were washed with phosphate buffer saline (PBS) and incubated with 1 ml of MEM medium supplemented with 1% FBS as previously described. The compounds were prepared in dimethylsulfoxide (DMSO) at the indicated concentrations before addition to viral infected cells. Supernatants were collected after 5 day incubation and analyzed by plaque titration[9].
(§4) Compounds were prepared in DMSO at 8–12 different concentrations and added to virus infected cells as previously described. Supernatants were collected and the EC50 values were calculated from nonlinear regression analysis.

[4] = Cytotoxicity study (CellTiter 96 AQueous One) in HepG2 cells; format: cell-based; conditions: human, read-out: Cells viability (%, means ± SEM) HepG2
Protocol: as §1

Vero cells = assay: Cytotoxicity study (CellTiter 96 AQueous One) in Vero cells; format: cell-based; conditions: 10 and 25 µM; in words
Protocol: as §1

[5] = as above; format: cell-based; conditions: African green monkey, 48 h, read-out: Cells viability (%, means ± SEM) Vero
Protocol: as §1

ZIKV (SV0010/15) = assay: Antiviral efficacy (EC50) in virus infected LLC/MK2 cells, plaque assay; format: cell-based, Zika virus
Protocol: as §2, §3, §4

DENV4 (c0036) = assay: as above; format: cell-based, Dengue virus
Protocol: as §2, §3, §4

DENV1 (16007) = assay: as above; format: cell-based, Dengue virus; conditions: Dengue virus, DENV1, LLC-MK2
Protocol: as §2, §3, §4

DENV2 (NGC) = assay: as above; format: cell-based, Dengue virus
Protocol: as §2, §3, §4

[6] = Cytotoxicity study (CellTiter 96 AQueous One) in LLC/MK2 cells; format: cell-based; conditions: rhesus monkey; for viability at 48 h, 10 µM / viability at 48 h, 25 µM: read-out: Cells viability (%, means ± SEM) LLC/MK2
Protocol: as §1

LLC/MK2 cells = assay: as above; format: cell-based; conditions: LLC/MK2 cell viability at 120 h versus 48 h; in words
Protocol: as §1

DENV2 NGC = assay: Primary screening: compounds added to DENV2 infected LLC/MK2 cells, plaque titration of culture supernatants; format: cell-based, Dengue virus; conditions: for inhibition of virus production: 10 μM and 25 μM, summary of Table 1; for inhibition at 10 µM / inhibition at 25 µM: Dengue virus, DENV2, LLC-MK2, read-out: DENV2 inhibition (%, means ± SEM)
Protocol: In this study, we selected 8 flavonoid derivatives (Fig. 1) and tested their effect on DENV2 NGC in a LLC/MK2 cell-based system. Briefly, the compounds at final concentrations of 10 μM and 25 μM in DMSO were added to DENV2 infected LLC/MK2 cells and the effect on viral particle production was measured by plaque titration of the culture supernatants. […] We also tested cytotoxicity of FV13, FV14, and CH1 to verify the viral inhibition in LLC/MK2 cells (Table 2). The viabilities of FV13 treated cells were 81.00 ± 2.69% and 59.40 ± 2.42%, at 10, and 25 µM respectively, whereas the values for FV14 treated cells were 60.24 ± 3.31% and 60.86 ± 3.57%. We also examined Vero, THP-1, HepG2, and HEK-293 cell viabilities in the presence of selected compounds (Table 2).
LLC/MK2 cells were seeded at 5 × 10^4 cells into each well of 24-well plate and incubated overnight at 37 °C under 5% CO2. Cells were infected with DENV2 at the multiplicity of infection (M.O.I.) of 0.1, unless indicated otherwise, for 1 h with gentle rocking every 15 min. Cells were washed with phosphate buffer saline (PBS) and incubated with 1 ml of MEM medium supplemented with 1% FBS as previously described. The compounds were prepared in dimethylsulfoxide (DMSO) at the indicated concentrations before addition to viral infected cells. Supernatants were collected after 5 day incubation and analyzed by plaque titration. In primary screening, DMSO-treated cells served as the untreated control. Compounds that inhibited virus production by ≥90% were selected for further characterization.

DENV2 = conditions: cell-based assay; cited from earlier work
[7] = test system: BHK-21/DENV2 replicon cells; assay: Replicon inhibition assay, RT-qPCR of replicon RNA; format: cell-based; conditions: Dengue virus, DENV2, BHK-21, 72 h, read-out: inhibition of DENV2 replicon replication
Protocol: Next, we studied FV13 inhibition in a DENV2 replicon replication system to investigate whether translation and replication could be implicated as drug targets. BHK-21/DENV2 replicon cells[28] were treated with 5 and 10 µM FV13 and incubated for 72 h before measuring replication efficiency by quantifying replicon RNA. Ribavirin, a known dengue virus replication inhibitor[29], was used as a positive control.
After supernatant collection, the remaining cells in experimental plates were extracted for viral RNAs using TRIzol reagent (Invitrogen, California, USA) according to the manufacturer’s protocol. The samples were loaded into the Direct-zol™ RNA MiniPrep (Zymo research, California, USA) and quantified by Nanodrop spectrophotometry (Eppendorf, New York, USA). The RT-qPCR was performed with a Step-OnePlus Real-Time PCR System (Applied Biosystems, California, USA.) with 1 × Power SYBRGreen PCR Master Mix, 400 nM each of capsid primers[40] or 250 nM of NS1 primers[41] and 0.1 µg of total RNA. The reactions were then cycled at 48 °C 30 min and 95 °C 10 min, followed by 45 cycles of 95 °C for 20 s (denaturation), 55 °C for 30 s (annealing), 72 °C for 30 s (extension). Each sample was analyzed in triplicated and results were confirmed by two independent experiments.
BHK-21 cells expressing a DENV2 replicon (BHK-21/DENV2) were maintained in minimal essential medium (MEM) supplemented with 10% fetal bovine serum (FBS), and 0.3 mg/ml G418 (Bio Basic Canada, Ontario, Canada). The protocol was adapted from Boonyasuppayakorn et al., 2014 [28]. Briefly, cells (5 × 10^4/well) were seeded into 24-well plates and were incubated for 1 day at 37 °C in a humidified CO2 chamber followed by addition of the compounds in 1% DMSO at final concentrations of 5 µM and 10 µM. DMSO (1%) alone was used as the no-inhibitor control (0% inhibition) and the reference compound was ribavirin (TargetMol, Massachusetts, USA) at a final concentration of 5 µM or 10 µM. Cells were incubated at 37 °C for 72 h and lysed to quantify DENV2 replicons by RT-qPCR. Data were reported as percent inhibition compared with ribavirin, as a reference compound and DMSO, 0% inhibition. Results were confirmed by three independent experiments.

[8] = parameters: method as in PMID 27098862, PMID 19397994; conditions: animals and humans; in words; cited from earlier work

In the case of O=c1cc(-c2ccccc2)oc2c(I)c(O)c(I)c(O)c12 [FV14, 6,8-diiodo-5,7-dihydroxyflavone], the viability at 48 h [1] is reported as > 80%, the viability at 48 h, 10 µM ([2]; THP-1 cells) is reported as 86.1 ± 2.76% and the viability at 48 h, 25 µM ([2]; THP-1 cells) is reported as 93.9 ± 7%. The viability at 48 h, 10 µM ([3]; HEK-293 cells) was 80.5 ± 3.18%, the viability at 48 h, 25 µM ([3]; HEK-293 cells) was 48.4 ± 5.76% and the “S.I. Selectivity index (CC50/EC50)” value (DENV3 (16562); DENV3 (16562), CC50 in LLC/MK2) was 43.64. For the same compound, the EC50 (DENV3 (16562); Dengue virus, DENV3, LLC-MK2) was 1.02 ± 0.31 µM, the viability at 48 h, 10 µM ([4]; HepG2 cells) was 85.6 ± 3.04% and the viability at 48 h, 25 µM ([4]; HepG2 cells) was 87.01 ± 0.52%. The “sensitivity of Vero cells to the compound” value (Vero cells) was “very sensitive”, the viability at 48 h, 10 µM ([5]; Vero cells) was 45.4 ± 1.17% and the viability at 48 h, 25 µM ([5]; Vero cells) was 34.1 ± 2.18%. For the same compound, the “S.I. Selectivity index (CC50/EC50)” value (ZIKV (SV0010/15); CC50 in LLC/MK2) was 32.14, the EC50 (ZIKV (SV0010/15); Zika virus, LLC/MK2, plaque assay in 24-well plates) was 1.39 ± 0.11 µM and the “S.I. Selectivity index (CC50/EC50)” value (DENV4 (c0036); DENV4 (c0036), CC50 in LLC/MK2) was 34.50. The EC50 (DENV4 (c0036); Dengue virus, DENV4, LLC-MK2) was 1.29 ± 0.6 µM, the EC50 (DENV1 (16007)) was 2.3 ± 0.92 µM and the “S.I. Selectivity index (CC50/EC50)” value (DENV2 (NGC); DENV2 (NGC), CC50 in LLC/MK2) was 20.37. For the same compound, the EC50 (DENV2 (NGC); Dengue virus, DENV2, LLC-MK2) was 2.19 ± 0.31 µM, the viability at 48 h, 10 µM ([6]; LLC/MK2 cells) was 60.2 ± 3.31% and the viability at 48 h, 25 µM ([6]; LLC/MK2 cells) was 60.9 ± 3.57%. For the same compound, the CC50 at 48 h ([6]; LLC/MK2 cells, 48 h incubation, read-out: CC50 (cytotoxic concentration)) was 42.5 ± 2.53 µM, the “effect of long term incubation on cytotoxicity” value (LLC/MK2 cells) was “significantly greater cytotoxicity at 120 h” and the “inhibition of virus production” value (DENV2 NGC) was > 99%. It also gave an inhibition at 10 µM (DENV2 NGC) of 99.48 ± 0.43% and an inhibition at 25 µM (DENV2 NGC) of 99.63 ± 0.03%.

With O=C(/C=C/c1ccc(O)cc1)c1ccccc1O [CH2] the inhibition at 10 µM (DENV2 NGC) was 52 ± 8.49% and the inhibition at 25 µM (DENV2 NGC) was 76 ± 4.24%.

For O=c1cc(-c2ccccc2)oc2cc(O)c(O)c(O)c12 [baicalein], the EC50 (DENV2) is listed as 23.9 µM.

In the case of O=C(O)[C@H]1O[C@@H](Oc2cc3oc(-c4ccccc4)cc(=O)c3c(O)c2O)[C@H](O)[C@@H](O)[C@@H]1O [Baicalin], the EC50 (DENV2) is given as 30.2 µM.

In the case of O=C1C[C@@H](c2ccc(O)cc2)Oc2cc(O)cc(O)c21 [Naringenin], the EC50 (DENV2) is given as 18 µM.

For COc1cc(OC)c2c(=O)cc(-c3ccccc3)oc2c1 [FV6], the inhibition at 10 µM (DENV2 NGC) was 55 ± 3% and the inhibition at 25 µM (DENV2 NGC) was 76 ± 7.35%.

NC(=O)c1ncn([C@@H]2O[C@H](CO)[C@@H](O)[C@H]2O)n1 [ribavirin, reference compound] showed an inhibition at 5 µM [7] of 87.4 ± 10.7% and an inhibition at 10 µM [7] of 89.9 ± 4.83%.

Compound COc1cc(O)c2c(=O)c(OC)c(-c3ccccc3)oc2c1 [FV4] has an inhibition at 10 µM (DENV2 NGC) of 38 ± 6.48% and an inhibition at 25 µM (DENV2 NGC) of 61 ± 3%.

Work on COc1cc(O)c2c(c1)OC(c1ccccc1)CC2=O (stereo not shown) [FN2] yielded an inhibition at 10 µM (DENV2 NGC) of 62 ± 2.45% and an inhibition at 25 µM (DENV2 NGC) of 85 ± 3%.

For O=c1c(O)c(-c2ccc(O)c(O)c2)oc2cc(O)ccc12 [fisetin], the EC50 (DENV2) is given as 192 µM.

Work on COc1ccc(/C=C/C(=O)c2ccccc2O)cc1 [CH1] yielded a viability at 48 h, 10 µM [2] of 93.1 ± 4.99%, a viability at 48 h, 25 µM [2] of 84.8 ± 2.38% and a viability at 48 h, 10 µM [3] of 98.3 ± 2.95%. The viability at 48 h, 25 µM [3] was 41.3 ± 0.54%, the viability at 48 h, 10 µM [4] was 71 ± 1.71% and the viability at 48 h, 25 µM [4] was 35.3 ± 1.34%. For the same compound, the “sensitivity of Vero cells to the compound” value (Vero cells) was “not”, the viability at 48 h, 10 µM [5] was > 100% and the viability at 48 h, 25 µM [5] was 80.4 ± 9.81%. For the same compound, the viability at 48 h, 10 µM [6] was 61.5 ± 6.43%, the viability at 48 h, 25 µM [6] was 59.1 ± 7.42% and the “inhibition of virus production” value (DENV2 NGC) was > 99%. The inhibition at 10 µM (DENV2 NGC) was 99.78 ± 0.08% and the inhibition at 25 µM (DENV2 NGC) was 99.75 ± 0.15%.

For O=c1c(O)c(-c2ccc(O)c(O)c2)oc2cc(O)cc(O)c12 [quercetin], the EC50 (DENV2) is listed as 118 µM.

In the case of O=c1cc(-c2ccccc2)oc2cc(O)cc(O)c12 [FV2, 5,7-dihydroxyflavone], the oral bioavailability [8] is given as “poor”, the inhibition at 10 µM (DENV2 NGC) is given as 43 ± 3% and the inhibition at 25 µM (DENV2 NGC) is given as 92.8 ± 3.06%.
